We go through four compounds from the NIST ThermoML archive (doi:10.1021/acs.jced.8b00807).

± gives the expanded uncertainty stated by the source.

This data set can be described thus: Boiling temperature at pressure P. The note with it: 101.3 kPa; Liquid; Ebulliometric method (Recirculating still).
Take `CC(=O)OCCC(C)C` [3-methylbutyl ethanoate]: the “Boiling temperature at pressure P” value is 142.00 ± 0.2 °C.

As to `Cc1ccc(C)cc1` [1,4-dimethylbenzene], the “Boiling temperature at pressure P” value amounted to 138.34 ± 0.2 °C. With `CC(=O)OCC(C)C` [2-methylpropyl ethanoate], the “Boiling temperature at pressure P” value stood at 116.40 ± 0.2 °C. As to `COC(C)=O` [methyl ethanoate], the “Boiling temperature at pressure P” value was 57.1 ± 0.2 °C.
